Experimental data published in ChEMBL document CHEMBL3045303, “An efficient, solvent-free microwave-assisted synthesis and antimicrobial screening of 1,6-dihydropyrimidine analogues” (2012).
Converted amounts (≈) assume the structure as drawn.

Tests used:
Assay type in all cases: functional
Escherichia coli = experiment: Antimicrobial activity against Escherichia coli MTCC 443 after 24 hr by serial broth dilution method; conditions: MTCC 443, 24 h
Streptococcus pyogenes = experiment: Antimicrobial activity against Streptococcus pyogenes MTCC 442 after 24 hr by serial broth dilution method; conditions: MTCC 442, 24 h
Pseudomonas aeruginosa = experiment: Antimicrobial activity against Pseudomonas aeruginosa MTCC 1688 after 24 hr by serial broth dilution method; conditions: MTCC 1688, 24 h
Aspergillus clavatus = experiment: Antimicrobial activity against Aspergillus clavatus MTCC 1323 after 72 hr by serial broth dilution method; conditions: MTCC 1323, 72 h
Aspergillus niger = experiment: Antimicrobial activity against Aspergillus niger MTCC 282 after 72 hr by serial broth dilution method; conditions: MTCC 282, 72 h
Candida albicans = experiment: Antimicrobial activity against Candida albicans MTCC 227 after 72 hr by serial broth dilution method; conditions: MTCC 227, 72 h
Staphylococcus aureus = experiment: Antimicrobial activity against Staphylococcus aureus MTCC 96 after 24 hr by serial broth dilution method; conditions: MTCC 96, 24 h

SMILES | MIC (Escherichia coli) [µg/mL] | MIC (Streptococcus pyogenes) [µg/mL] | MIC (Pseudomonas aeruginosa) [µg/mL] | MIC (Aspergillus clavatus) [µg/mL] | MIC (Aspergillus niger) [µg/mL] | MIC (Candida albicans) [µg/mL] | MIC (Staphylococcus aureus) [µg/mL]
Nc1ccc(C2=CC(c3ccccc3)NC(S)=N2)cc1 (configuration not stated) | – | – | 250 (≈ 888 µM) | – | – | – | –
COc1ccc(C2C=C(c3ccc(N)cc3)N=C(S)N2)cc1 (configuration not stated) | – | – | 250 (≈ 803 µM) | – | – | – | –
N#CCCCSC1=NC(c2ccc(N)cc2)=CC(c2cccc(O)c2)N1 (configuration not stated) | 500 (≈ 1370 µM) | 200 (≈ 549 µM) | 500 (≈ 1370 µM) | 500 (≈ 1370 µM) | 500 (≈ 1370 µM) | 50 (≈ 137 µM) | 250 (≈ 686 µM)
N#CCCCSC1=NC(c2ccc(N)cc2)=CC(c2ccc([N+](=O)[O-])cc2)N1 (configuration not stated) | 500 (≈ 1270 µM) | 500 (≈ 1270 µM) | 100 (≈ 254 µM) | 200 (≈ 508 µM) | 50 (≈ 127 µM) | 500 (≈ 1270 µM) | 500 (≈ 1270 µM)
Cc1ccccc1C1C=C(c2ccc(N)cc2)N=C(SCCCC#N)N1 (configuration not stated) | 500 (≈ 1380 µM) | 1000 (≈ 2760 µM) | 250 (≈ 690 µM) | 1000 (≈ 2760 µM) | 500 (≈ 1380 µM) | 1000 (≈ 2760 µM) | 1000 (≈ 2760 µM)
Cc1cccc(C2C=C(c3ccc(N)cc3)N=C(SCCCC#N)N2)c1 (configuration not stated) | 1000 (≈ 2760 µM) | 500 (≈ 1380 µM) | 500 (≈ 1380 µM) | 1000 (≈ 2760 µM) | 500 (≈ 1380 µM) | 1000 (≈ 2760 µM) | 1000 (≈ 2760 µM)
CN(C)c1ccc(C2C=C(c3ccc(N)cc3)N=C(SCCCC#N)N2)cc1 (configuration not stated) | 500 (≈ 1280 µM) | 1000 (≈ 2550 µM) | 250 (≈ 638 µM) | 1000 (≈ 2550 µM) | 500 (≈ 1280 µM) | 1000 (≈ 2550 µM) | 250 (≈ 638 µM)
CC1(C)S[C@@H]2[C@H](NC(=O)[C@H](N)c3ccccc3)C(=O)N2[C@H]1C(=O)O [AMPICILLIN] | 100 (≈ 286 µM) | 100 (≈ 286 µM) | 100 (≈ 286 µM) | – | – | – | 250 (≈ 715 µM)
COC1=CC(=O)C[C@@H](C)[C@]12Oc1c(Cl)c(OC)cc(OC)c1C2=O [GRISEOFULVIN] | – | – | – | 100 (≈ 283 µM) | 100 (≈ 283 µM) | 500 (≈ 1420 µM) | –

Next, values leading:

MIC (Escherichia coli) [µg/mL] | MIC (Streptococcus pyogenes) [µg/mL] | MIC (Pseudomonas aeruginosa) [µg/mL] | MIC (Aspergillus clavatus) [µg/mL] | MIC (Aspergillus niger) [µg/mL] | MIC (Candida albicans) [µg/mL] | MIC (Staphylococcus aureus) [µg/mL] | SMILES
250 (≈ 841 µM) | 250 (≈ 841 µM) | – | – | – | – | – | Nc1ccc(C2=CC(c3ccc(O)cc3)NC(S)=N2)cc1 (configuration not stated)
250 (≈ 764 µM) | 250 (≈ 764 µM) | – | – | – | – | – | COc1cc(C2C=C(c3ccc(N)cc3)N=C(S)N2)ccc1O (configuration not stated)
500 (≈ 1430 µM) | 1000 (≈ 2870 µM) | 50 (≈ 143 µM) | 1000 (≈ 2870 µM) | 100 (≈ 287 µM) | 1000 (≈ 2870 µM) | 500 (≈ 1430 µM) | N#CCCCSC1=NC(c2ccc(N)cc2)=CC(c2ccccc2)N1 (configuration not stated)
100 (≈ 261 µM) | 100 (≈ 261 µM) | 100 (≈ 261 µM) | 100 (≈ 261 µM) | 500 (≈ 1310 µM) | 1000 (≈ 2610 µM) | 500 (≈ 1310 µM) | N#CCCCSC1=NC(c2ccc(N)cc2)=CC(c2ccc(Cl)cc2)N1 (configuration not stated)
50 (≈ 137 µM) | 100 (≈ 274 µM) | 250 (≈ 686 µM) | 500 (≈ 1370 µM) | 100 (≈ 274 µM) | 200 (≈ 549 µM) | 250 (≈ 686 µM) | N#CCCCSC1=NC(c2ccc(N)cc2)=CC(c2ccccc2O)N1 (configuration not stated)
25 (≈ 68.6 µM) | 50 (≈ 137 µM) | 1000 (≈ 2740 µM) | 200 (≈ 549 µM) | 500 (≈ 1370 µM) | 500 (≈ 1370 µM) | 500 (≈ 1370 µM) | N#CCCCSC1=NC(c2ccc(N)cc2)=CC(c2ccc(O)cc2)N1 (configuration not stated)
25 (≈ 63.4 µM) | 100 (≈ 253 µM) | 100 (≈ 253 µM) | 100 (≈ 253 µM) | 100 (≈ 253 µM) | 100 (≈ 253 µM) | 250 (≈ 634 µM) | COc1cc(C2C=C(c3ccc(N)cc3)N=C(SCCCC#N)N2)ccc1O (configuration not stated)
100 (≈ 276 µM) | 500 (≈ 1380 µM) | 500 (≈ 1380 µM) | 100 (≈ 276 µM) | 50 (≈ 138 µM) | 1000 (≈ 2760 µM) | 50 (≈ 138 µM) | Cc1ccc(C2C=C(c3ccc(N)cc3)N=C(SCCCC#N)N2)cc1 (configuration not stated)
100 (≈ 264 µM) | 500 (≈ 1320 µM) | 25 (≈ 66.1 µM) | 50 (≈ 132 µM) | 200 (≈ 528 µM) | 500 (≈ 1320 µM) | 100 (≈ 264 µM) | COc1ccc(C2C=C(c3ccc(N)cc3)N=C(SCCCC#N)N2)cc1 (configuration not stated)
